Experimental data taken from patent publication US8993768B2, “Tropolone compounds for treating or preventing retroviral infection” (The United States of America, as represented by the …, priority 2011, dated 2015).
Like-named read-outs stand apart in the source and are kept apart here.

Assays:
[1] = molecular target: T1, HIV-1 RNase H (p66/p51 HIV-1 RT) (Human immunodeficiency virus type 1 group M subtype B, UniProt P04585); assay: High throughput RNase H assay on sequence-independent RNA/DNA hybrid; assay type: biochemical; details: HIV-1 RNase H enzymatic activity, sequence-independent RNA/DNA hybrid; read-out: In vitro IC50
T1 construct: RT is a p66/p51 heterodimer comprised of asymmetrically-organized subunits processed from the 165 kDa gag/pol polyprotein precursor; (His)6; made in house; host or cells: Escherichia coli
Description: IC50 values were determined as previously reported (Budihas, S. R., et al., Nucleic Acids Res., 33(4):1249-56 (2005)), using an 18-nucleotide 3′-flourescein-labeled RNA annealed to a complementary 18-nucleotide 5′-dabsyl-labeled DNA. […] The reaction was initiated by adding 1 μl of 100 mM MgCl2 to 9 μl of mixture containing 4 ng enzyme, 200 nM substrate, 20 μM α-hydroxytropolones in 50 mM Tris, pH 8.0, 80 mM KCl, 2 mM DTT, and 10% DMSO at 37° C., and quenched with 10 μl of a gel-loading buffer after 10 minutes. Hydrolysis products were fractionated by denaturing polyacrylamide gel electrophoresis and visualized by fluorescent imaging (Typhoon Trio+, GE Healthcare, Piscataway, N.J.). […]

HIV-1 RT RNase H = molecular target: T2, HIV-1 RT RNase H (Human immunodeficiency virus type 1 group M subtype B, UniProt P04585); assay: Cleavage of the HIV-1 polypurine tract (PPT) primer, PPT/U3 junction; assay type: biochemical; details: 20 μM inhibitor
T2 construct: RT is a p66/p51 heterodimer comprised of asymmetrically-organized subunits processed from the 165 kDa gag/pol polyprotein precursor; (His)6; made in house; host or cells: Escherichia coli
Description: FIG. 2A depicts a schematic model of RNA/DNA substrate, indicating the RNase H cleavage site at the PPT/U3 junction (< >). The PPT is indicated by the shaded box. FIG. 2B depicts the quantification of PPT cleavage data. All inhibitors were evaluated at 20 μM.
IC50 values were determined as previously reported (Budihas, S. R., et al., Nucleic Acids Res., 33(4):1249-56 (2005)), using an 18-nucleotide 3′-flourescein-labeled RNA annealed to a complementary 18-nucleotide 5′-dabsyl-labeled DNA. […] The reaction was initiated by adding 1 μl of 100 mM MgCl2 to 9 μl of mixture containing 4 ng enzyme, 200 nM substrate, 20 μM α-hydroxytropolones in 50 mM Tris, pH 8.0, 80 mM KCl, 2 mM DTT, and 10% DMSO at 37° C., and quenched with 10 μl of a gel-loading buffer after 10 minutes. Hydrolysis products were fractionated by denaturing polyacrylamide gel electrophoresis and visualized by fluorescent imaging (Typhoon Trio+, GE Healthcare, Piscataway, N.J.).
Since the high-throughput RNase H assay examines non-specific, “polymerase-independent” RNase H activity defined by the spatial separation of the DNA polymerase and RNase H active site of HIV-1 RT (Gopalakrishnan, V., et al., Proc. Natl. Acad. Sci. USA, 89(22):10763-7 (1992)), an examination of whether α-hydroxytropolones altered cleavage specificity on a more biologically-relevant substrate, namely the polypurine tract (PPT) primer, which must be processed from the RNA/DNA replication intermediate to initiate (+) strand DNA synthesis.

[2] = Compound cytotoxicity in uninfected cells (same assay plate); assay type: cell-based; details: human, uninfected CEM-SS cells; read-out: Virus Replication CC50
Description: (§1) All samples were tested in duplicate. The HIV-1 virus strain RF was used to infect CEM-SS cells. Compound cytotoxicity was measured in the same assay plate using uninfected cells. Regression analysis was used to estimate the effective concentration (EC50) as well as the cytotoxic concentration (CC50).

p66^EQ/p51 HIV-1 RT = molecular target: T3, p66^EQ/p51 HIV-1 RT (Human immunodeficiency virus type 1 group M subtype B, UniProt P04585, E1065Q); assay: DNA-dependent DNA polymerase assay, RNase H-deficient mutant p66EQ/p51; assay type: biochemical; details: 20 μM
T3 construct: RT is a p66/p51 heterodimer comprised of asymmetrically-organized subunits processed from the 165 kDa gag/pol polyprotein precursor; (His)6; made in house; host or cells: Escherichia coli
Description: (§2) DNA-dependent DNA synthesis was measured on a fluorescently-labeled duplex DNA prepared by annealing a 33-nt template, 5′-CACTGCTCAAGAAGTTCCAATCCTAAATACATA-3′ (SEQ ID NO: 3), to the 5′-Cy5-labeled primer 5′-ATGTATGGGTATGTATTTAGG-3′ (SEQ ID NO: 4). Polymerization was initiated by adding 1 μl of 2 mM dNTPs to 9 μl of mixture containing 4 ng enzyme, 200 nM substrate, 20 μM α-hydroxytropolones in 10 mM Tris, pH 7.8, 80 mM KCl, 1 mM DTT, 10 mM MgCl2, and 10% DMSO at 37° C. DNA synthesis was quenched with 10 μl of a gel-loading buffer after 10 minutes, and reaction products were analyzed by denaturing polyacrylamide gel electrophoresis and fluorescent imaging.
(§3) In order to examine the specificity of our manicol analogs, their effect on the DNA polymerase activity of wild type p66/p51 HIV-1 RT and RNase H-deficient derivatives was determined. In particular, RNase H-deficient strains p66^EQ/p51 and p66^DA/p51, were tested, which harbor mutations in one of the catalytically-critical amino acids contacted by manicol (E478 and D549, respectively), that would be predicted to interfere with α-hydroxytropolone binding.
(§4) Although crystallographic evidence is presently unavailable, compounds 5 and 10, thus appear capable of occupying a second site on HIV-1 RT.

p66^DA/p51 HIV-1 RT = molecular target: T4, p66^DA/p51 HIV-1 RT (Human immunodeficiency virus type 1 group M subtype B, UniProt P04585, D1136A); assay: DNA-dependent DNA polymerase assay, RNase H-deficient mutant p66DA/p51; assay type: biochemical; details: 20 μM
T4 construct: RT is a p66/p51 heterodimer comprised of asymmetrically-organized subunits processed from the 165 kDa gag/pol polyprotein precursor; (His)6; made in house; host or cells: Escherichia coli
Description: as §2, §3, §4

[3] = test system: HIV-1 virus strain RF in CEM-SS cells; assay: HIV-1 cytopathicity assay; assay type: cell-based; details: for EC50: read-out: Virus Replication EC50
Description: This assay was conducted as previously reported (Weislow, O, S., et al., J. Natl. Cancer Inst., 81(8):577-86 (1989)). Samples were dissolved in DMSO at 10 mM and diluted to a final high concentration of 50 μM in the 96-well assay plate, with 2-fold dilutions made to a low concentration of about 0.78 μM. All samples were tested in duplicate. The HIV-1 virus strain RF was used to infect CEM-SS cells. Compound cytotoxicity was measured in the same assay plate using uninfected cells. Regression analysis was used to estimate the effective concentration (EC50) as well as the cytotoxic concentration (CC50).

uninfected CEM-SS cells = assay: Compound cytotoxicity in uninfected cells (same assay plate); assay type: cell-based
Description: as §1

[4] = test system: HIV-1 virus strain RF in CEM-SS cells; details: background, previous finding; cited from earlier work
[5] = molecular target: T1, HIV-1 RNase H (p66/p51 HIV-1 RT); details: background, previously demonstrated; cited from earlier work

SMILES	IC50 [1] [µM]	inhibition of PPT/U3 cleavage (in words) (HIV-1 RT RNase H)	CC50 [2] [µM]	effect on DNA-dependent DNA polymerase activity (p66^EQ/p51 HIV-1 RT)	effect on DNA-dependent DNA polymerase activity (p66^DA/p51 HIV-1 RT)	protection against the cytopathic effect of the virus (in words) ([3]; HIV-1 RF)	EC50 ([3]; Human immunodeficiency virus 1, CEM-SS, HIV-1 RF) [µM]	CC50 (uninfected CEM-SS cells) [µM]	EC50 ([3]; HIV-1 RF) [µM]	reduction of virus replication in culture [4]	inhibition of RNase H activity of HIV RT in vitro [5]	EC50 ([3]; Human immunodeficiency virus 1, HIV-1 RF) [µM]
Cc1cc(O)c(=O)c(O)c2c1CC(C(C)(O)CNc1ccccc1)CC2 (mixture of isomers) [Compound 5, 5,7-Dihydroxy-2-(1-hydroxy-1-methyl-2-phenylamino-ethyl)-9-methyl-1,2,3,4-tetrahydrobenzocyclohepten-6-one]	1.2	more active in blocking PPT/U3 cleavage	31.7	significantly and consistently inhibited	significantly and consistently inhibited	showed protection	7.4	–	–	–	–	–
Cc1cc(O)c(=O)c(O)c2c1CC(C(C)(O)C[S+]([O-])Cc1ccccc1)CC2 (stereo not shown) [Compound 10, 2-(2-Benzylsulfinyl-1-hydroxy-1-methyl-ethyl)-5,7-dihydroxy-9-methyl-1,2,3,4-tetrahydrobenzocyclohepten-6-one]	1.5	less active	–	significantly and consistently inhibited	significantly and consistently inhibited	showed protection	–	> 50	14.5	–	–	–
C=C(C)[C@H]1CCc2c(c(C)cc(O)c(=O)c2O)C1 [Manicol, 5,7-dihydroxy-2-isopropenyl-9-methyl-1,2,3,4-tetrahydro-benzocyclohepten-6-one, reference compound]	–	–	13.6	–	–	no protection	–	–	–	ineffective	potently and specifically inhibit	13.6
